Data published in article PMC9934367, “Functional impact of subunit composition and compensation on Drosophila melanogaster nicotinic receptors–targets of neonicotinoids” (PLOS Genetics, 2023).

Experiments:
Dα3/Dβ1 nAChR = target: T1, Dα3/Dβ1 nAChR (Drosophila melanogaster, UniProt P04755+Q9W3G6); test: cell-based; type: cell-based, D. melanogaster
T1 construct: Dβ1 (NP_523927); expressed in transfected cells; host or cells: Xenopus laevis oocytes (cRNA injection)
Experimental: (§1) cDNAs of the nAChR subunits and co-factors were cloned into pcDNA3.1 (+) vector (Thermo Fisher Scientific). The accession numbers of the nAChR subunits and cofactors are as follows: Dα1 (NP_524481), Dα2 (NP_524482), Dα3 (NP_525079), Dα4 (CAB77445), Dβ1 (NP_523927), Dβ2 (NP_524483), Dβ3 (NP_525098), DmRIC-3 (CAP16647), DmUNC-50 (NP_649813), and DmTMX3 (NP_648847). cRNAs were prepared using the mMESSAGE mMACHINE T7 ULTRA Transcription Kit (Thermo Fisher Scientific, #AM1345) according to the manual with the cDNA template which was cut with appropriate restriction enzymes at the 3’ end of the cDNA.
(§2) We minimised the use of X. laevis according to the UK Animals (Scientific Procedures) Act, 1986. […] Oocytes were defolliculated after collagenase treatment in Ca^2+-free standard oocyte saline (Ca^2+-free SOS). cRNAs of the nAChR subunits and co-factors mixed at a concentration of 0.1 mg/mL was injected into oocytes at a volume of 50 nL. Then the oocytes were incubated in the incubation medium (SOS supplemented with sodium pyruvate (Nacalai Tesque, #13058–12), penicillin-streptomycin (MilliporeSigma, #P4333), gentamycin (Nacalai Tesque, #16672–04), and 4% horse serum (Thermo Fisher Scientific, #26050–070) for 3−4 days prior to electrophysiology.
(§3) Each defolliculated X. laevis oocyte was secured in a Perspex recording chamber and perfused with the standard oocyte saline (SOS) containing 0.5 μM atropine (SOSA) at a flow rate of 7−10 mL/min [48]. Two glass electrodes filled with 2 M KCl were impaled into each oocyte and the membrane potential was clamped at -100 mV. […] The peak amplitude of the response was measured and analysed by pCLAMP (Molecular Devices, USA).
(§4) Y=Imax/1+10^(logEC50‐X)nH
(§5) Where Y is the normalised response, X is log[ligand (M)], EC50 is the half maximal concentration (M), Imax is the maximum normalised response and nH is the Hill coefficient.

Dα1/chicken β2 nAChR = details: cited from earlier work
Dα2/chicken β2 nAChR = details: cited from earlier work
Dα3/Dβ1/Dβ2 nAChR = target: T2, Dα3/Dβ1/Dβ2 nAChR (Drosophila melanogaster, UniProt P04755+P25162+Q9W3G6); test: Voltage-clamp electrophysiology, nAChR expressed in X. laevis oocytes; type: cell-based, D. melanogaster
T2 construct: Dβ1 (NP_523927); Dβ2 (NP_524483); expressed in transfected cells; host or cells: Xenopus laevis oocytes (cRNA injection)
Experimental: as §1, §2, §3, §4, §5

Dα2/Dα3/Dβ1 nAChR = target: T3, Dα2/Dα3/Dβ1 nAChR (Drosophila melanogaster, UniProt P04755+P17644+Q9W3G6); test: as above; type: cell-based, D. melanogaster
T3 construct: Dα2 (NP_524482); Dβ1 (NP_523927); expressed in transfected cells; host or cells: Xenopus laevis oocytes (cRNA injection)
Experimental: as §1, §2, §3, §4, §5

D. melanogaster nAChRs = test: Comparison of agonist activity between nAChRs expressed in X. laevis oocytes (one-way ANOVA, Kruskal-Wallis); type: cell-based
Experimental: as §2, §3, §4, §5
Prism software was employed for the statistical analyses. […] One-way ANOVA was used to analyse the differences of the ligand agonist activity in terms of pEC50 on the various nAChRs expressed in X. laevis as well as data obtained with D. melanogaster larvae and adults.

D. melanogaster = details: Dα2 knockout; cited from earlier work

Question: What does the source list for α-Bungarotoxin [α-BTX]?
Answer: blocking effect on ACh-induced response (Dα3/Dβ1 nAChR): minimal blocking effect; sensitivity to α-BTX (Dα1/chicken β2 nAChR): sensitive; sensitivity to α-BTX (Dα2/chicken β2 nAChR): resistant; blocking effect on ACh-induced response (Dα3/Dβ1/Dβ2 nAChR): minimal blocking effect; blocking effect on ACh-induced response (Dα2/Dα3/Dβ1 nAChR): minimal blocking effect

Question: For `N#C/N=C1\SCCN1Cc1ccc(Cl)nc1` [Thiacloprd], which “Difference of Imax values, nAChRs compared” value (“Difference of Imax values” below) (D. melanogaster nAChRs; Dα1/Dα2/Dα3/Dβ1/Dβ2 vs. Dα1/Dα2/Dα4/Dβ1/Dβ2) is on record?
Answer: -0.007

Question: What about the “Difference of Imax values” value (D. melanogaster nAChRs; Dα1/Dα2/Dα3/Dβ1/Dβ2 vs. Dα1/Dα2/Dβ1/Dβ2/Dβ3) of the same compound?
Answer: 0.036

Question: And the “Difference of Imax values” value (D. melanogaster nAChRs; Dα1/Dα2/Dα3/Dβ1/Dβ2 vs. Dα1/Dα3/Dα4/Dβ1/Dβ2)?
Answer: 0.033

Question: What about the “Difference of Imax values” value (D. melanogaster nAChRs; Dα1/Dα2/Dα3/Dβ1/Dβ2 vs. Dα1/Dα3/Dβ1/Dβ2/Dβ3) of the same compound?
Answer: -0.030

Question: What about the “Difference of Imax values” value (D. melanogaster nAChRs; Dα1/Dα2/Dα3/Dβ1/Dβ2 vs. Dα2/Dα3/Dα4/Dβ1/Dβ2) of the same compound?
Answer: 0.041

Question: And the “Difference of Imax values” value (D. melanogaster nAChRs; Dα1/Dα2/Dα3/Dβ1/Dβ2 vs. Dα2/Dα3/Dβ1/Dβ2/Dβ3)?
Answer: 0.049

Question: Which “sensitivity in larvae, effect of knockout” value (D. melanogaster) does the source give for `CCN(Cc1ccc(Cl)nc1)/C(=C/[N+](=O)[O-])NC` [nitenpyram] here?
Answer: enhanced
